The results in this text go back to ChEMBL document CHEMBL1128992, “A Non-peptidic photoactivatable antagonist for mapping the antagonist binding site of the tachykinin NK2 receptor” (Bioorg Med Chem Lett, 1996).

The structures appear in SMILES notation.

For the assay, the target named is T1, Substance-K receptor (Homo sapiens, UniProt P21452).
T1 sequence (P21452 whole entry): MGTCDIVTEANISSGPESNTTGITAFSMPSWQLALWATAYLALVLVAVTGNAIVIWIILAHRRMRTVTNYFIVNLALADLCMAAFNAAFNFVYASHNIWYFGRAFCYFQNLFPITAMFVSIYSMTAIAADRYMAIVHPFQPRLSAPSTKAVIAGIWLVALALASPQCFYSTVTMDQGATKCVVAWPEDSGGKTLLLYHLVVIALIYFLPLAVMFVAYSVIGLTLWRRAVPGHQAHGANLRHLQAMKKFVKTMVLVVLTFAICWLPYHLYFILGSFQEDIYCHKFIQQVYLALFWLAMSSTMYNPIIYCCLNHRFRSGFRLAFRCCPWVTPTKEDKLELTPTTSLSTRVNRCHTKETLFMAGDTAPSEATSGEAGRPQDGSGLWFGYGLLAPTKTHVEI
The assay is described as follows: Binding affinity was determined against human NK2 receptor in CHO cells using [125I]neurokinin A as radioligand. It is filed as cell-based.

By IC50 is commonly meant the concentration at which inhibition is half-maximal. Turning to `CN(CC(CCN1CCC(O)(c2ccccc2)CC1)c1ccc(Cl)c(Cl)c1)C(=O)c1cccc(C2(C(F)(F)F)N=N2)c1` (racemic), the IC50 turned out to be 6.7 nM.

Molecule `CC(=O)NC1(c2ccccc2)CCN(CC[C@H](CN(C)C(=O)c2ccccc2)c2ccc(Cl)c(Cl)c2)CC1` (racemic) [SAREDUTANT] came in with an IC50 of 0.8 nM.
